Measured values as given in US20110086759A1, “CHEMICAL COMPOUNDS” (SYNGENTA CROP PROTECTION, INC., priority 2007, published 2011).

What was measured:
Assay type in all cases: in vivo
[1] = tested on: Alopecurus myosuroides (ALOMY); assay: Post-emergence biological efficacy, glasshouse pot test; conditions: 312 h
Method in brief: (§1)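 Pot-grown weeds were sprayed 8 days after sowing with test compound in acetone/water (50:50) with 0.5% Tween 20 at 1000 or 250 g/ha. Glasshouse at 24/16° C day/night, 14 h light, 65% humidity. Damage scored 0-100 (100 = total damage) after 13 days.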

[2] = tested on: Ipomea hederaceae (IPOHE); assay: as above; conditions: Ipomoea hederacea, 312 h
Method in brief: as §1

Solanum nigrum (SOLNI) [3] = assay: as above; conditions: 312 h
Method in brief: as §1

[4] = tested on: Amaranthus retoflexus (AMARE); assay: as above; conditions: Amaranthus retroflexus, 312 h
Method in brief: as §1

Setaria faberi (SETFA) [5] = assay: as above; conditions: 312 h
Method in brief: as §1

[6] = tested on: Echinochloa crus-galli (ECHCG); assay: as above; conditions: 312 h
Method in brief: as §1

[7] = tested on: Alopecurus myosuroides (ALOMY); assay: Pre-emergence biological efficacy, glasshouse pot test; conditions: 312 h
Method in brief: (§2)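 Visual phytotoxicity (0 no damage, 100 total damage) assessed 13 d after treatment. Soil-sown pots sprayed one day post-sowing; dose 1000 or 250 g/ha; formulation in acetone/water 50:50, 0.5% Tween 20.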

[8] = tested on: Ipomea hederaceae (IPOHE); assay: as above; conditions: Ipomoea hederacea, 312 h
Method in brief: as §2

Solanum nigrum (SOLNI) [9] = assay: as above; conditions: 312 h
Method in brief: as §2

[10] = tested on: Amaranthus retoflexus (AMARE); assay: as above; conditions: Amaranthus retroflexus, 312 h
Method in brief: as §2

Setaria faberi (SETFA) [11] = assay: as above; conditions: 312 h
Method in brief: as §2

[12] = tested on: Echinochloa crus-galli (ECHCG); assay: as above; conditions: 312 h
Method in brief: as §2

[13] = post-emergence, 1,000 g/ha, evaluated after 13 days (100=total damage; 0=no damage), read-out: Percentage damage caused to weed species, ALOMY
[14] = post-emergence, 1,000 g/ha, evaluated after 13 days (100=total damage; 0=no damage), read-out: Percentage damage caused to weed species, IPOHE
[15] = post-emergence, 1,000 g/ha, evaluated after 13 days (100=total damage; 0=no damage), read-out: Percentage damage caused to weed species, SOLNI
[16] = post-emergence, 1,000 g/ha, evaluated after 13 days (100=total damage; 0=no damage), read-out: Percentage damage caused to weed species, AMARE
[17] = post-emergence, 1,000 g/ha, evaluated after 13 days (100=total damage; 0=no damage), read-out: Percentage damage caused to weed species, SETFA
[18] = post-emergence, 1,000 g/ha, evaluated after 13 days (100=total damage; 0=no damage), read-out: Percentage damage caused to weed species, ECHCG
[19] = pre-emergence, 1,000 g/ha, evaluated after 13 days (100=total damage; 0=no damage), read-out: Percentage damage ALOMY
[20] = pre-emergence, 1,000 g/ha, evaluated after 13 days (100=total damage; 0=no damage), read-out: Percentage damage IPOHE
[21] = pre-emergence, 1,000 g/ha, evaluated after 13 days (100=total damage; 0=no damage), read-out: Percentage damage SOLNI
[22] = pre-emergence, 1,000 g/ha, evaluated after 13 days (100=total damage; 0=no damage), read-out: Percentage damage AMARE
[23] = pre-emergence, 1,000 g/ha, evaluated after 13 days (100=total damage; 0=no damage), read-out: Percentage damage SETFA
[24] = pre-emergence, 1,000 g/ha, evaluated after 13 days (100=total damage; 0=no damage), read-out: Percentage damage ECHCG
[25] = Rate 1,000 g/ha, post-emergence spray, evaluated after 13 days (100=total damage to plant; 0=no damage to plant), read-out: Percentage damage caused to weed species, post-emergence, ALOMY
[26] = Rate 1,000 g/ha, post-emergence spray, evaluated after 13 days (100=total damage to plant; 0=no damage to plant), read-out: Percentage damage caused to weed species, post-emergence, IPOHE
[27] = Rate 1,000 g/ha, post-emergence spray, evaluated after 13 days (100=total damage to plant; 0=no damage to plant), read-out: Percentage damage caused to weed species, post-emergence, SOLNI
[28] = Rate 1,000 g/ha, post-emergence spray, evaluated after 13 days (100=total damage to plant; 0=no damage to plant), read-out: Percentage damage caused to weed species, post-emergence, AMARE
[29] = Rate 1,000 g/ha, post-emergence spray, evaluated after 13 days (100=total damage to plant; 0=no damage to plant), read-out: Percentage damage caused to weed species, post-emergence, SETFA
[30] = Rate 1,000 g/ha, post-emergence spray, evaluated after 13 days (100=total damage to plant; 0=no damage to plant), read-out: Percentage damage caused to weed species, post-emergence, ECHCG
[31] = pre-emergence, rate 1,000 g/ha, evaluated after 13 days (100=total damage to plant; 0=no damage), read-out: Percentage damage caused to weed species, ALOMY
[32] = pre-emergence, rate 1,000 g/ha, evaluated after 13 days (100=total damage to plant; 0=no damage), read-out: Percentage damage caused to weed species, IPOHE
[33] = pre-emergence, rate 1,000 g/ha, evaluated after 13 days (100=total damage to plant; 0=no damage), read-out: Percentage damage caused to weed species, SOLNI
[34] = pre-emergence, rate 1,000 g/ha, evaluated after 13 days (100=total damage to plant; 0=no damage), read-out: Percentage damage caused to weed species, AMARE
[35] = pre-emergence, rate 1,000 g/ha, evaluated after 13 days (100=total damage to plant; 0=no damage), read-out: Percentage damage caused to weed species, SETFA
[36] = pre-emergence, rate 1,000 g/ha, evaluated after 13 days (100=total damage to plant; 0=no damage), read-out: Percentage damage caused to weed species, ECHCG

SMILES	pest or weed control at 1000 g/ha [1, 13] [%]	pest or weed control at 1000 g/ha [2, 14] [%]	pest or weed control at 1000 g/ha (Solanum nigrum (SOLNI) [3]; [15]) [%]	pest or weed control at 1000 g/ha [4, 16] [%]	pest or weed control at 1000 g/ha (Setaria faberi (SETFA) [5]; [17]) [%]	pest or weed control at 1000 g/ha [6, 18] [%]	pest or weed control at 1000 g/ha [7, 19] [%]	pest or weed control at 1000 g/ha [8, 20] [%]	pest or weed control at 1000 g/ha (Solanum nigrum (SOLNI) [9]; [21]) [%]	pest or weed control at 1000 g/ha [10, 22] [%]	pest or weed control at 1000 g/ha (Setaria faberi (SETFA) [11]; [23]) [%]	pest or weed control at 1000 g/ha [12, 24] [%]	other results
COC(=O)c1nc(C2CC2)nc(N[C@H](CO)CSCc2ccccc2)c1Cl [4-276 (R), 5-Chloro-2-cyclopropyl-4-[(1R)-1-hydroxymethyl-2-phenylmethylthio-ethylamino]-6-methoxycarbonyl-pyrimidine]	20	40	80	100	40	30	20	80	90	100	30	30	–
CCN(Cc1ccc(F)cc1)c1nc(C2CC2)nc(C(=O)OC)c1Cl [Compound 6-66, 5-Chloro-2-cyclopropyl-4-[N-ethyl-N-(4-fluorophenylmethyl)-amino]-6-methoxycarbonyl-pyrimidine]	–	–	–	–	–	–	–	–	–	–	–	–	pest or weed control at 1000 g/ha [1, 25]: 40%; pest or weed control at 1000 g/ha [2, 26]: 100%; pest or weed control at 1000 g/ha (Solanum nigrum (SOLNI) [3]; [27]): 90%; pest or weed control at 1000 g/ha [4, 28]: 100%; pest or weed control at 1000 g/ha (Setaria faberi (SETFA) [5]; [29]): 90%; pest or weed control at 1000 g/ha [6, 30]: 60%; pest or weed control at 1000 g/ha [7, 31]: 20%; pest or weed control at 1000 g/ha [8, 32]: 80%; pest or weed control at 1000 g/ha (Solanum nigrum (SOLNI) [9]; [33]): 20%; pest or weed control at 1000 g/ha [10, 34]: 50%; pest or weed control at 1000 g/ha (Setaria faberi (SETFA) [11]; [35]): 10%; pest or weed control at 1000 g/ha [12, 36]: 0%
COC(=O)c1nc(C2CC2)nc(NCC(C)(F)c2ccc(Cl)cc2Cl)c1Cl (stereo not drawn) [Compound 4-243, 5-Chloro-2-cyclopropyl-4-[2-(2,4-dichlorophenyl)-2-fluoro-propylamino]-6-methoxycarbonyl-pyrimidine]	0	60	70	80	20	10	0	0	10	40	0	0	–
CCCCN(Cc1ccccc1)c1nc(C2CC2)nc(C(=O)OC)c1Cl [Compound 147-60, 4-(N-But-1-yl-N-phenylmethyl-amino)-5-chloro-2-cyclopropyl-6-methoxycarbonyl-pyrimidine]	–	–	–	–	–	–	–	–	–	–	–	–	pest or weed control at 1000 g/ha [1, 25]: 10%; pest or weed control at 1000 g/ha [2, 26]: 80%; pest or weed control at 1000 g/ha (Solanum nigrum (SOLNI) [3]; [27]): 80%; pest or weed control at 1000 g/ha [4, 28]: 70%; pest or weed control at 1000 g/ha (Setaria faberi (SETFA) [5]; [29]): 40%; pest or weed control at 1000 g/ha [6, 30]: 10%; pest or weed control at 1000 g/ha [7, 31]: 40%; pest or weed control at 1000 g/ha [8, 32]: 30%; pest or weed control at 1000 g/ha (Solanum nigrum (SOLNI) [9]; [33]): 80%; pest or weed control at 1000 g/ha [10, 34]: 100%; pest or weed control at 1000 g/ha (Setaria faberi (SETFA) [11]; [35]): 0%; pest or weed control at 1000 g/ha [12, 36]: 20%
CCCCCc1ccc(C(C)Nc2nc(C3CC3)nc(C(=O)OC)c2Cl)cc1 (stereo not drawn) [Compound 4-178, 5-Chloro-2-cyclopropyl-6-methoxycarbonyl-4-[1-(4-n-pentyl-phenyl)ethylamino]-pyrimidine]	20	70	80	70	30	20	10	40	30	60	10	10	–
COC(=O)c1nc(C2CC2)nc(NCc2ccccn2)c1Cl [Compound 4-151, 5-Chloro-2-cyclopropyl-6-methoxycarbonyl-4-(pyrid-2-yl-methylamino)-pyrimidine]	60	80	80	100	80	80	40	90	90	100	50	60	–
COC(=O)c1nc(C2CC2)nc(N[C@@H](C)c2ccc(OC)cc2)c1Cl [4-181 (S), (S)-5-Chloro-2-cyclopropyl-6-methoxycarbonyl-4-[1-(4-methoxy-phenyl)ethylamino]-pyrimidine]	30	90	90	100	40	50	20	80	60	60	0	50	–
COC(=O)c1nc(C2CC2)nc(NCc2ccc(Cl)c(OC)c2)c1Cl [Compound 4-116, 5-Chloro-4-(4-chloro-3-methoxy-phenylmethyl-amino)-2-cyclopropyl-6-methoxycarbonyl-pyrimidine]	60	100	100	100	90	100	50	100	100	100	80	70	–
COC(=O)c1nc(C2CC2)nc(NCC2CCCCC2)c1Cl [Compound 4-49, 5-Chloro-4-cyclohexylmethyl-amino-2-cyclo-propyl-6-methoxy-carbonylpyrimidine]	10	70	70	100	40	40	0	40	30	10	0	0	–
